Results reported in the NIST ThermoML archive (doi:10.1016/j.jct.2015.02.024).
± gives the expanded uncertainty stated by the source.

Test: activity coefficient (dimensionless); of the first substance listed, at infinite dilution; xn = mol fraction of the nth substance listed
Settings: 101 kPa, Liquid, Chromatography, x1 = 0

For CC(C)O [propan-2-ol] + C[N+]1(CCCO)CCOCC1.O=S(=O)([N-]S(=O)(=O)C(F)(F)F)C(F)(F)F, which activity coefficient (318.15 K) is on record?
Its activity coefficient is 1.83 ± 0.12.

What about the activity coefficient (328.15 K) of the same compound?
The activity coefficient was 1.78 ± 0.12.

And the activity coefficient (338.15 K)?
The activity coefficient was 1.74 ± 0.12.

And the activity coefficient (348.15 K)?
The activity coefficient was 1.71 ± 0.11.

And the activity coefficient (358.15 K)?
The activity coefficient was 1.67 ± 0.11.

What about the activity coefficient (368.15 K) of the same compound?
The activity coefficient was 1.64 ± 0.11.

With c1ccncc1 [pyridine] + C[N+]1(CCCO)CCOCC1.O=S(=O)([N-]S(=O)(=O)C(F)(F)F)C(F)(F)F as the compound, how does the activity coefficient (318.15 K) read?
Its activity coefficient is 0.414 ± 0.034.

And the activity coefficient (328.15 K)?
Its activity coefficient is 0.461 ± 0.036.

And the activity coefficient (338.15 K)?
The activity coefficient was 0.501 ± 0.038.

What about the activity coefficient (348.15 K) of the same compound?
Its activity coefficient is 0.55 ± 0.04.

And the activity coefficient (358.15 K)?
Its activity coefficient is 0.593 ± 0.042.

And the activity coefficient (368.15 K)?
The activity coefficient was 0.639 ± 0.044.

For C=Cc1ccccc1 [styrene] + C[N+]1(CCCO)CCOCC1.O=S(=O)([N-]S(=O)(=O)C(F)(F)F)C(F)(F)F, which activity coefficient (318.15 K) is on record?
The activity coefficient was 3.45 ± 0.23.

What about the activity coefficient (328.15 K) of the same compound?
The activity coefficient was 3.51 ± 0.24.

What about the activity coefficient (338.15 K) of the same compound?
The activity coefficient was 3.58 ± 0.24.

What about the activity coefficient (348.15 K) of the same compound?
Its activity coefficient is 3.66 ± 0.25.

And the activity coefficient (358.15 K)?
The activity coefficient was 3.72 ± 0.25.

And the activity coefficient (368.15 K)?
The activity coefficient was 3.78 ± 0.26.

Which activity coefficient (318.15 K) does the source give for C1CCOC1 [tetrahydrofuran] + C[N+]1(CCCO)CCOCC1.O=S(=O)([N-]S(=O)(=O)C(F)(F)F)C(F)(F)F here?
The activity coefficient was 0.968 ± 0.061.

And the activity coefficient (328.15 K)?
Its activity coefficient is 1.03 ± 0.06.

What about the activity coefficient (338.15 K) of the same compound?
Its activity coefficient is 1.08 ± 0.07.

And the activity coefficient (348.15 K)?
The activity coefficient was 1.12 ± 0.07.

What about the activity coefficient (358.15 K) of the same compound?
Its activity coefficient is 1.18 ± 0.08.

And the activity coefficient (368.15 K)?
The activity coefficient was 1.23 ± 0.08.

Which results are given for c1ccsc1 [thiophene] + C[N+]1(CCCO)CCOCC1.O=S(=O)([N-]S(=O)(=O)C(F)(F)F)C(F)(F)F?
activity coefficient (318.15 K): 1.89 ± 0.13; activity coefficient (328.15 K): 1.92 ± 0.13; activity coefficient (338.15 K): 1.95 ± 0.13; activity coefficient (348.15 K): 1.98 ± 0.13; activity coefficient (358.15 K): 2 ± 0.14; activity coefficient (368.15 K): 2.03 ± 0.14

For Cc1ccccc1 [toluene] + C[N+]1(CCCO)CCOCC1.O=S(=O)([N-]S(=O)(=O)C(F)(F)F)C(F)(F)F, which activity coefficient (318.15 K) is on record?
Its activity coefficient is 4.03 ± 0.27.

And the activity coefficient (328.15 K)?
The activity coefficient was 4.08 ± 0.28.

And the activity coefficient (338.15 K)?
The activity coefficient was 4.11 ± 0.28.

And the activity coefficient (348.15 K)?
The activity coefficient was 4.16 ± 0.28.

What about the activity coefficient (358.15 K) of the same compound?
The activity coefficient was 4.19 ± 0.29.

And the activity coefficient (368.15 K)?
Its activity coefficient is 4.22 ± 0.29.

With C=COC(C)=O [vinyl acetate] + C[N+]1(CCCO)CCOCC1.O=S(=O)([N-]S(=O)(=O)C(F)(F)F)C(F)(F)F as the compound, how does the activity coefficient (318.15 K) read?
The activity coefficient was 1.87 ± 0.13.

And the activity coefficient (328.15 K)?
Its activity coefficient is 1.91 ± 0.13.

What about the activity coefficient (338.15 K) of the same compound?
The activity coefficient was 1.94 ± 0.13.

And the activity coefficient (348.15 K)?
The activity coefficient was 1.98 ± 0.13.

What about the activity coefficient (358.15 K) of the same compound?
Its activity coefficient is 2 ± 0.14.

What about the activity coefficient (368.15 K) of the same compound?
Its activity coefficient is 2.03 ± 0.14.

Which activity coefficient (318.15 K) does the source give for O [water] + C[N+]1(CCCO)CCOCC1.O=S(=O)([N-]S(=O)(=O)C(F)(F)F)C(F)(F)F here?
The activity coefficient was 1.43 ± 0.09.

What about the activity coefficient (328.15 K) of the same compound?
The activity coefficient was 1.36 ± 0.09.

And the activity coefficient (338.15 K)?
Its activity coefficient is 1.28 ± 0.08.

And the activity coefficient (348.15 K)?
The activity coefficient was 1.21 ± 0.08.

What about the activity coefficient (358.15 K) of the same compound?
The activity coefficient was 1.15 ± 0.07.

What about the activity coefficient (368.15 K) of the same compound?
The activity coefficient was 1.1 ± 0.07.
